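How tested: cells in 96-well plates exposed to compound for 48 hours at five concentrations. Here, GI50 denotes the concentration required for 50% inhibition of growth.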 Active and inactive are the calls of the source. Cut-off read from the data, not from the text of the source: active = GI50 up to about 1.1 µM and inactive = higher.
Experiments:
Test in all cases: DTP human tumour cell line panel, 48 h
NCI-H23 = system: NCI-H23
HOP-92 = system: HOP-92
MOLT-4 = system: MOLT-4
OVCAR-4 = system: OVCAR-4
TK-10 = system: TK-10
DU-145 = system: DU-145
HCT-116 = system: HCT-116
SK-OV-3 = system: SK-OV-3
SF-268 = system: SF-268
NCI-H226 = system: NCI-H226
MDA-MB-435 = system: MDA-MB-435
SF-539 = system: SF-539
Hs-578T = system: Hs-578T
Malme-3M = system: Malme-3M
M19-MEL = system: M19-MEL
IGROV-1 = system: IGROV-1
HL-60 = system: HL-60
UACC-62 = system: UACC-62
SK-MEL-28 = system: SK-MEL-28
UO-31 = system: UO-31

Row | Compound | GI50 (NCI-H23) | GI50 (HOP-92) | GI50 (MOLT-4) | GI50 (OVCAR-4) | GI50 (TK-10) | GI50 (DU-145) | GI50 (HCT-116) | GI50 (SK-OV-3) | GI50 (SF-268) | GI50 (NCI-H226) | GI50 (MDA-MB-435) | GI50 (SF-539) | GI50 (Hs-578T) | GI50 (Malme-3M) | GI50 (M19-MEL) | GI50 (IGROV-1) | GI50 (HL-60) | GI50 (UACC-62) | GI50 (SK-MEL-28) | GI50 (UO-31)
1 | CC1=CC(=O)c2cccc(O)c2C1=O | 2.96 µM (inactive) | 1.85 µM (inactive) | 0.473 µM (active) | 1.92 µM (inactive) | 2.43 µM (inactive) | 8.05 µM (inactive) | 1.91 µM (inactive) | 14.3 µM (inactive) | 6.76 µM (inactive) | 7.28 µM (inactive) | 1.78 µM (inactive) | 5.7 µM (inactive) | 3.07 µM (inactive) | 1.62 µM (inactive) | 1.98 µM (inactive) | 13.2 µM (inactive) | 0.935 µM (active) | 1.96 µM (inactive) | 4.25 µM (inactive) | 1.79 µM (inactive)
2 | COc1cc2cc3c4c(cc(OC)c(OC)c4c2cc1OC)CCN3C(=O)CCC(=O)NCCCN(C)C | > 100 µM (inactive) | 10 µM (inactive) | 58.9 µM (inactive) | > 100 µM (inactive) | > 100 µM (inactive) | – | 43.1 µM (inactive) | 46.2 µM (inactive) | > 100 µM (inactive) | 66.8 µM (inactive) | – | 18.8 µM (inactive) | – | 64.7 µM (inactive) | 22.8 µM (inactive) | > 100 µM (inactive) | 21.7 µM (inactive) | 47.6 µM (inactive) | 38.4 µM (inactive) | > 100 µM (inactive)
3 | COc1cc([C@@H]2c3cc4c(cc3[C@@H](OC3OC5CO[C@@H](c6cccs6)OC5C(O)C3O)[C@H]3COC(=O)[C@H]23)OCO4)cc(OC)c1O (some centres not stated) | 0.406 µM (active) | 0.132 µM (active) | – | 5.12 µM (inactive) | 1.75 µM (inactive) | 0.324 µM (active) | 0.885 µM (active) | 0.395 µM (active) | 0.48 µM (active) | 0.32 µM (active) | 1.34 µM (inactive) | 0.205 µM (active) | 0.42 µM (active) | 0.656 µM (active) | 0.828 µM (active) | 1.7 µM (inactive) | 0.0521 µM (active) | 0.183 µM (active) | 1.66 µM (inactive) | 4.35 µM (inactive)
4 | CC1CSC(=S)N1C(=O)N1C(=S)SCC1C (configuration not stated) | 20.3 µM (inactive) | 27.7 µM (inactive) | 23.6 µM (inactive) | – | 27.8 µM (inactive) | 19.5 µM (inactive) | 24.4 µM (inactive) | 40.9 µM (inactive) | 26.3 µM (inactive) | 26.5 µM (inactive) | 17.2 µM (inactive) | 19.3 µM (inactive) | 35.7 µM (inactive) | 17.1 µM (inactive) | 25.6 µM (inactive) | 18.5 µM (inactive) | 12.1 µM (inactive) | 14.7 µM (inactive) | 14.3 µM (inactive) | 22.8 µM (inactive)
5 | CN(Cc1ccccc1)c1nc(=[N+](C)C)ss1 | 31.8 µM (inactive) | > 100 µM (inactive) | 32.1 µM (inactive) | > 100 µM (inactive) | 35.2 µM (inactive) | – | 34.6 µM (inactive) | 96.8 µM (inactive) | 49.1 µM (inactive) | 8.95 µM (inactive) | – | 76.4 µM (inactive) | – | > 100 µM (inactive) | 41.9 µM (inactive) | > 100 µM (inactive) | 28.4 µM (inactive) | 24.6 µM (inactive) | > 100 µM (inactive) | > 100 µM (inactive)
6 | C=C(c1ccccc1)[C@@]1(O)CC[C@@H]1N(CC#N)Cc1ccccc1 | 23.1 µM (inactive) | 18.7 µM (inactive) | 26.3 µM (inactive) | 15.3 µM (inactive) | 20.8 µM (inactive) | 80.7 µM (inactive) | 16.6 µM (inactive) | 98.9 µM (inactive) | 33.5 µM (inactive) | 35.2 µM (inactive) | 22.5 µM (inactive) | 29.2 µM (inactive) | 20.7 µM (inactive) | 3.23 µM (inactive) | 28.3 µM (inactive) | 36.1 µM (inactive) | 32 µM (inactive) | 17.9 µM (inactive) | 17.2 µM (inactive) | 26.7 µM (inactive)

Reference: ChEMBL document CHEMBL1201862, “PubChem BioAssay data set” (2004)
